Test results published in a melting point compilation (Tetko et al.; mined from patent text by program, amines drawn as free bases though some values may be those of a salt).

Compound `CCOCc1nc2c(N)nc3cc(N4CCOC4=O)ccc3c2n1CCCOC(C)C` has a melting point of 166 to 167 °C.
`CCOc1ccccc1OC(c1ccccc1)C(O)CO` (centres undefined) gave a melting point of 68 to 70 °C.
Compound `Cc1c(NC(=O)OC(C)(C)C)cnn1-c1cccnc1` has a melting point of 89 to 91 °C.
In the case of `O=c1[nH]c2c3ccccc3ccc2n(CC2CC2)c1=O`, the melting point is reported as 292 °C.
`Clc1cc(Cl)cc(-c2cc3cc(Cl)cc(Cl)c3[nH]2)c1` showed a melting point of 189 to 190 °C.
Work on `CCC(CN1CCCC1)C(=O)c1cc(-c2ccccc2)no1` (centres undefined) yielded a melting point of 68 to 69 °C.
`Nc1ccc(-c2ccccc2)cc1N` gave a melting point of 96 to 99 °C.
In the case of `CCc1cc(-c2nc(C)c(-c3ccnc(Nc4ccc(CNC(C)=O)cc4)n3)s2)ccn1`, the melting point is reported as 224 to 225 °C.
Work on `COC(=O)c1ccc(-c2nc(-c3cc(Cl)sc3Cl)cs2)cc1` yielded a melting point of 149 to 150 °C.
With `N#Cc1ccc(N2CCC(N3CCCC3)CC2)cc1` the melting point was 88 to 89 °C.
`N#CC(c1ccc(F)cc1)c1ccc([N+](=O)[O-])cc1C(F)(F)F` (centres undefined) gave a melting point of 68 °C.
Compound `NCCNc1cc(NCCO)c([N+](=O)[O-])c(NCCO)c1` has a melting point of 220 °C.
Work on `COc1ccc(CCNCC(O)C(=O)O)cc1OC` (centres undefined) yielded a melting point of 188 °C.
Compound `CC(C)(O)c1cccc2ccccc12` has a melting point of 81 to 86 °C.
`CC1(C)CCC(Br)(C(Br)c2ccc(Cl)cc2)C(=O)C1` (centres undefined) showed a melting point of 114 to 115 °C.
With `CCCCCCCCCCCCCCCC(=O)OC(CCCCCCCCCCCCCC)C(=O)O` (centres undefined) the melting point was 55 to 56 °C.
Compound `Cc1ccc(-c2cccc(/C=C/C(=O)Nc3ccc(C(O)c4ccccn4)cc3)c2)cc1` (centres undefined) has a melting point of 162 to 165 °C.
`Fc1ccc(Nc2nc(NC3CCOCC3)nc(OCC(F)(F)F)n2)cc1Cl` showed a melting point of 190 to 191 °C.
`O=C1CCC(N2Cc3c(OCc4ccc5nc(CN6CCOCC6)cn5c4)cccc3C2=O)C(=O)N1` (centres undefined) gave a melting point of 278 to 280 °C.
With `O=C1CCCC(=O)N1CCCn1c2ccccc2c2nc3ccccc3nc21` the melting point was 312 to 314 °C.
`CC(=O)Nc1c(I)c(C(N)=O)c(I)c(C(=O)NCC(=O)O)c1I` showed a melting point of 271 to 272 °C.
`CON1CCC(C#N)(OC(=O)Cc2c(C)cc(C)cc2C)CC1` gave a melting point of 75 to 78 °C.
Work on `CCCCOc1ccc(S(C)(=O)=O)cc1-c1nc2c(CC)n(CCN3CCOCC3)nc2c(=O)[nH]1` yielded a melting point of 235 to 238 °C.
Work on `ON=C1CSc2ccccc2CN1` yielded a melting point of 208 to 210 °C.
With `CC(C)Nc1ccc(-c2ncc(C(F)(F)F)cc2Cl)cc1N` the melting point was 116 to 117 °C.
Work on `Cc1c(C)c2c(c(C)c1N)CC(C)(CN1CCC(OCc3ccccc3)CC1)O2` (centres undefined) yielded a melting point of 85 to 86 °C.
For `C=C1N(C(C)(C)C)C(=O)OC12CCN(C(=O)CC)CC2`, the melting point was 104 to 105 °C.
For `N#Cc1ccc(-c2ccc(N3CCOCC3)cc2)[nH]c1=O`, the melting point was 272 to 275 °C.
In the case of `CC1c2ccccc2COc2ccc(C(=O)O)cc21` (centres undefined), the melting point is reported as 224 to 226 °C.
Compound `CS(=O)(=O)c1ncc2n1-c1ccc(Cl)cc1C(c1ccccc1F)=[N+]([O-])C2` has a melting point of 219 to 220 °C.
`CCOc1cccc(COc2ccc3c(c2)C=C(C(=O)O)CCS3(=O)=O)c1` showed a melting point of 150 to 154 °C.
With `CC1C(c2ccccc2)OP(N)(=O)N1C` (centres undefined) the melting point was 170 to 172 °C.
`COc1cc(Cn2[nH]c(N)cc2=O)ccc1Cl` showed a melting point of 148 °C.
Compound `Cc1cc(O)c2c(ccc3nc(-c4ccco4)[nH]c32)n1` has a melting point of 280 to 282 °C.
With `O=C(O)CCCc1cc2nc(Cl)ccc2n1S(=O)(=O)c1ccc2ncccc2c1` the melting point was 153 to 162 °C.
`CCN(CCCN1CCN(c2ccccc2OC)CC1)C1CCc2ncsc2C1` (centres undefined) gave a melting point of 64 °C.
Work on `CS(=O)(=S)OCc1c(F)c(F)c(F)c(F)c1F` (centres undefined) yielded a melting point of 64.2 to 64.7 °C.
In the case of `CCCCCCC(O)C(=O)NCCS` (centres undefined), the melting point is reported as 83 to 84 °C.
`NC(c1ccccc1)c1ccc(OCCCCOc2ccc(C(N)c3ccccc3)cc2)cc1` (centres undefined) gave a melting point of 120 to 123 °C.
Work on `CC(=O)N[C@@H](CSC(C)=O)C(=O)NCCSC(C)=O` yielded a melting point of 153 to 154 °C.
In the case of `COc1ccc(C(=O)NNC(=O)N(C)C)cc1`, the melting point is reported as 218 to 220 °C.
Compound `c1ccc(C(c2ccc3[nH]nnc3c2)n2ccnc2)cc1` (centres undefined) has a melting point of 179 °C.
Compound `O=C(C1CC=CCC1)N1c2ccccc2CCC1CN1CCN(c2cccc3[nH]ccc23)CC1` (centres undefined) has a melting point of 156 to 160 °C.
`O=C(Nc1ccc2ccc(Cl)nc2n1)c1cccc(Br)c1` showed a melting point of 224 °C.
`CSc1snc(C(F)(F)F)c1C(=O)O` gave a melting point of 260 to 262 °C.
Compound `COc1ccc(-c2cc(C)c(N)c(CO)c2)cn1` has a melting point of 80 to 82 °C.
For `CCn1cc(C(=O)O)c(=O)cc1-c1ccc(NC)c(C)c1`, the melting point was 243 to 244 °C.
`O=CC=Cc1c(C2CC2)nc2ccccc2c1-c1ccc(F)cc1` showed a melting point of 146 to 147 °C.
For `O=C(O)CC1CCc2c(n(Cc3ccccc3)c3ccccc23)S1` (centres undefined), the melting point was 164 to 167 °C.
`CN(C(=O)OC(C)(C)C)c1cc(Oc2ccc(-c3nnn(C(c4ccccc4)(c4ccccc4)c4ccccc4)n3)cc2)ccc1[N+](=O)[O-]` gave a melting point of 161 to 163 °C.
Work on `CNC(=O)c1c(C(F)(F)F)nc(C(F)F)c(C(=O)OC)c1NC(C)C` yielded a melting point of 128 to 130 °C.
In the case of `CN=C(NS(=O)(=O)c1ccc(Cl)cc1)SC`, the melting point is reported as 121 to 123 °C.
`CC(=O)NCc1ccc(CN2CCN(c3cccc(C)c3)CC2)cc1` showed a melting point of 80 to 81 °C.
With `Cc1nc(N)nc(N)c1/C=C/C(C)(C)c1ccc(C(F)(F)F)cc1` the melting point was 182 to 185 °C.
Work on `CCCc1nc(C=O)c(Cl)c(N)c1F` yielded a melting point of 89 to 91 °C.
In the case of `N#Cc1cc(C(=O)NNC(=O)c2occc2-c2ccccc2Cc2ccccc2)ccc1O`, the melting point is reported as 175 to 176 °C.
`CC(=O)N(C)c1cc2c(nc(C)n2C)c2c1CCC(c1ccccc1)O2` (centres undefined) showed a melting point of 214 to 216 °C.
For `Cc1ccc(S(=O)(=O)OCC2COc3ccc4c(=O)ccoc4c3O2)cc1` (centres undefined), the melting point was 190 to 191 °C.
With `Cc1cc(C)nc(NC(=NO)NS(=O)(=O)c2ccccc2Cl)n1` the melting point was 165 to 167 °C.
With `CCOC(=O)Cc1c(C(F)(F)F)nc(C)[nH]c1=O` the melting point was 108 to 110 °C.
For `O=C(NCc1ccc(O)cc1)c1[nH]c2ccc(Cl)cc2c1S(=O)(=O)c1ccccc1`, the melting point was 249 to 250 °C.
In the case of `O=c1[nH]c2ccc([N+](=O)[O-])cc2c(O)c1[N+](=O)[O-]`, the melting point is reported as 197 to 198 °C.
`CCCOc1cccc(-c2nn(C(C)c3oc4ccccc4c(=O)c3-c3cccc(F)c3)c3ncnc(N)c23)c1` (centres undefined) gave a melting point of 178 to 182 °C.
Work on `Cc1cccc(-c2nc3cccnn3c2-c2ccnc(NC(=O)c3cccc(F)c3)c2)c1` yielded a melting point of 204 to 205 °C.
Work on `COC(=O)c1ccc(OC)c(C=O)c1O` yielded a melting point of 123 to 124 °C.
With `COc1cccc(C(=O)N[C@H]2C[C@@H](c3cc(NC(=O)Cc4cccc5ccccc45)n[nH]3)C2)c1` the melting point was 125 °C.
`Cc1cc(Br)ccc1NC(=O)CC(=O)Sc1ccccc1` showed a melting point of 133 to 135 °C.
In the case of `CCOc1ccc(S(=O)(=O)N2CCN(C)CC2)cc1C(=O)O`, the melting point is reported as 201 °C.
`O=[N+]([O-])c1ccc2[nH]cc(CCCO)c2c1` showed a melting point of 107 to 110 °C.
For `CC(C)Sc1nc(-c2nn(C)c(OC(F)F)c2Cl)c(F)cc1Cl`, the melting point was 63 to 64 °C.
`Clc1cccc(Nc2ncnc(-c3ccnc(Cl)c3)n2)c1` gave a melting point of 178 to 180 °C.
In the case of `Cc1nc(C)c(C(C)(O)c2cocc2Br)o1` (centres undefined), the melting point is reported as 124 to 125 °C.
With `CC(=O)Nc1ccc2c(c1)NC(=O)C2=C(C)C` the melting point was 93 °C.
For `COC(=O)c1nn(-c2ccc(Cl)cc2Cl)c(-c2ccc(Cl)cc2)c1CBr`, the melting point was 145 °C.
In the case of `COc1ccc2c(c1CC=C(C)C)OC(c1ccc(O)cc1O)CC2` (centres undefined), the melting point is reported as 95 to 96 °C.
With `C[C@H](Nc1nc(C#N)nc(Cl)c1-c1c(F)cc(F)cc1F)C(F)(F)F` the melting point was 134 to 136 °C.
For `Cc1cc2c(nc1C(O)c1cccnc1)CCCCC2` (centres undefined), the melting point was 124 to 126 °C.
With `Cc1ccc(SCC(=O)c2cc(O)c(O)c([N+](=O)[O-])c2)cc1` the melting point was 115 to 116 °C.
`CCCc1nc(C)c2nnc3ccc(F)cc3n12` showed a melting point of 124 to 126 °C.
With `COc1ccc(Nc2nc(Cl)nc3c(OC)cccc23)c(C)c1` the melting point was 230 to 232 °C.
For `O=S1(=O)c2cccc3cccc(c23)N1CCN1CCC(CC2CNc3ccccc3C2)CC1` (centres undefined), the melting point was 134 °C.
For `CCCc1c(OCCCS(=O)(=O)c2ccc(C(=O)CCCCC(=O)O)cc2)ccc(C(C)=O)c1O`, the melting point was 138 to 140 °C.
Work on `CCc1cc(OC)c(-c2nc(N)sc2CCC2CCCCC2)cc1OC` yielded a melting point of 88 °C.
Compound `O=C(Cn1c(-c2ccc(Br)cc2)nc2cccnc21)NCCN1CCCCC1` has a melting point of 178 to 179 °C.
Work on `CC(C)c1ccc2c(-c3cc(C(C)(C)C)c(O)c(C(C)(C)C)c3)nn(CCO)c2n1` yielded a melting point of 110 to 111 °C.
In the case of `O=Cc1cc(Cl)c(O)c(O)c1Cl`, the melting point is reported as 176 to 178 °C.
`Fc1cc(Br)ccc1CSc1nc2cnccc2[nH]1` showed a melting point of 204 to 206 °C.
Work on `COc1ccc(C(=O)Nc2cccc(C(=O)O)c2)c2cc(C(=O)c3ccccc3)oc12` yielded a melting point of 262 to 263 °C.
`Cc1cc(C)n(C(=O)CCNS(=O)(=O)c2ccccc2)n1` showed a melting point of 113 to 115 °C.
Compound `COc1ccc(C2=NOC3(C2)C(=O)CN(C)C3=O)cc1OC1CCCC1` (centres undefined) has a melting point of 169 to 170 °C.
Compound `Cc1cc(C(C)(C)C)cc2c1OCC(/C=C/C=C/C=C/C(=O)O)=C2` has a melting point of 225 to 227 °C.
Compound `CCOC(=O)C(O)CCc1ccc(OC)c(OCc2ccccc2)c1` (centres undefined) has a melting point of 93 to 94 °C.
Compound `COc1ccc(Nc2ncnc3occ(C)c23)cc1` has a melting point of 99 to 102 °C.
Compound `Clc1nc2ccccc2c2c(CCC3CCNCC3)n(-c3ccccc3)nc12` has a melting point of 194 °C.
`CCOc1cc2ncc(C#N)c(Nc3ccc4cn[nH]c4c3)c2cc1OCC` showed a melting point of 143 to 145 °C.
For `CC1CN(c2nc(Cl)nc(C(C)O)n2)CC(C)N1` (centres undefined), the melting point was 126 to 128 °C.
With `Cc1cc(S(=O)(=O)c2cc(C)c(O)c(C3CCCCC3)c2)cc(C2CCCCC2)c1O` the melting point was 264 to 265 °C.
For `O=Cc1oc(-c2ccccc2)nc1CO`, the melting point was 134 to 135 °C.
Compound `Cc1cc(C#N)cc(C(=O)NCC2CC2)c1NC(=O)c1cc(C(F)(F)F)nn1-c1ncccc1Cl` has a melting point of 235 to 236 °C.
`COCC(=O)Nc1ccc2ncnc(Nc3cccc(Cl)c3)c2c1` gave a melting point of 177 to 180 °C.
For `CCSc1nccn1-c1ccc(O)cc1`, the melting point was 165 °C.
`O=c1oc(-c2ccccc2)cc(O)c1Oc1ccccc1` showed a melting point of 215 to 219 °C.
Work on `CCCCC1(N(C)C)CCC(c2[nH]c3ccc(F)cc3c2C)(c2[nH]c3ccccc3c2CCNC(=O)Nc2ccccc2)CC1` (centres undefined) yielded a melting point of 127 to 132 °C.
In the case of `Cc1nc2cnccc2n1-c1ccc(C2=Cc3nccn3-c3cc(Cl)c(Cl)cc3N2C)cc1`, the melting point is reported as 268 to 270 °C.
